Data: patent publication US20240301141A1, “SILICONE POLYMER COMPOUND AND TRANSDERMAL DELIVERY SYSTEM COMPRISING SAME” (UNIVERSITY-INDUSTRY COOPERATION GROUP OF KYUNG HEE …, priority 2021, published 2024)

How the values were obtained:
red blood cells = assay: Hemolysis analysis of mouse red blood cells; type: cell-based; conditions: 37° C., 1 hour, absorption 492 nm
Description: In addition, for hemolysis analysis, a blood sample was obtained from the heart of the mouse anesthetized with isoflurane, and then centrifuged at 4° C. (3000 rpm, 3 min) with cold 1×PBS (1 mL, 3 times) to collect red blood cells. The purified red blood cells were treated with 100 μL of 8% (v/v) each of PBS and the C2 compound and further incubated at 37° C. for 1 hour. The mixture was then collected using centrifugation at 4° C.

[1] = system: B16F10 (mouse murine melanoma cell line) cells
Description: Specifically, B16F10 (mouse murine melanoma cell line) cells were transplanted into the left or right thigh (subcutaneously) of the mouse (6-week-old female Balb/c nude) on day 0 to induce melanoma tumor, and then after 10 days later (tumor size=about 200 mm^3), melanoma model mice were divided into 3 groups (5 mice per group), and each group was administered with 100 μL of PBS, SN-38 (3 mM), or C2+SN-38 (C2 compound encapsulated with SN-38 anticancer agent) by topical application on days 10, 12, 13, and 14 ((a) of FIG. 27). In order to determine toxicity and therapeutic effects in melanoma model mice for 16 days, changes in body weight and tumor volume were measured every 2 to 3 days. At the end of the experiment (day 15), the body of each mouse was photographed with a digital camera to determine the shape and size of the tumor, and at the end of the experiment (day 16), the tumor was extracted from the mouse. The extracted tumor tissue (harvested tumor) was photographed with a digital camera, and the size and volume thereof were measured. In addition, for hemolysis analysis, red blood cells purified from the blood sample obtained from the mouse heart were treated with 100 μL of PBS (negative control), SN-38 (3 mM), C2+SN-38, and Triton-X (0.1% (v/v); positive control) at 8% (v/v), respectively, and further incubated at 37° C. for 1 hour, and then the mixture was centrifuged at 4° C. (3000 rpm, 3 min) and the UV/vis absorption peak (492 nm) of the final obtained supernatant was measured at 25° C.

mice = assay: Biocompatibility / immunotoxicity in mice (application behind the ears); conditions: mouse, in vivo
Description: Specifically, 25 μL each of phosphate-buffered saline (PBS) as a negative control, eugenol (Eug) inducing immunotoxicity as a positive control, and a C2 compound in the PDDS series were applied behind the ears of mice for 3 days, and after 6 days, the change in body weight, the feed intake and water intake, the weight of auricular lymph nodes, the number of lymph node cells, the stimulation index, and the concentrations of histamine and immunoglobulin E in the blood were measured.

[2] = Water contact angle on coated slide glass; type: physicochemical; conditions: distilled water on coated slide glass
Description: Specifically, a monomer and PDDS series compounds were applied onto a slide glass from Marienfeld using a 100 μL pipette, respectively, and then the monomer and the PDDS series were uniformly coated on the slide glass while the slide glass was tilted left and right. The monomer and the PDDS series were coated for about 1 hour in a fume hood, and then 100 μL each of the monomer and PDDS series were dropped again, and coated without an empty portion of the slide glass by repeating the process two more times. Thereafter, distilled water was dropped on the surface of the coated glass slide using a contact angle meter from Kruss and the contact angles were analyzed.

skin of mouse = assay: Skin penetration efficiency, fluorescence of oil red O in skin sections; type: in vivo
Description: Specifically, 100 μL each of oil red O-loaded C2 compound (C2; […]) and oil red O (OR; 100 μL, stock solution: 24 μM in PBS (1% ethanol)) were applied to the skin, and after 24 and 48 hours, the skin tissue was sectioned, and then the fluorescence of oil red O was tracked (excitation: 559 nm, detection: 636±20 nm) using a fluorescence microscope, and quantified and plotted using the Image-J program.
Here, (b, c) of FIG. 25 and (e, f) of FIG. 25 show the fluorescence intensity plot of Oil red O or the C2 compound (C2) loaded with Oil red O along the yellow dotted line in the images of (a) of FIG. 25 and (d) of FIG. 25, respectively.

## CCc1c2c(nc3ccc(O)cc13)-c1cc3c(c(=O)n1C2)COC(=O)[C@]3(O)CC [SN-38, 7-ethyl-10-hydroxycamptothecin]
Red blood cells
  hemolysis rate in red blood cells: severe hemolysis
[1]; melanoma xenograft mouse, topical on days 10, 12, 13, 14
  change in body weight: no significant change
[1]; tumor extracted day 16
  average tumor volume of extracted tumor: 1689±498.6 mm^3
  tumor growth / tumor size of extracted tumor tissue: only slightly reduced tumor growth

## C=CCc1ccc(O)c(OC)c1 [eugenol]
mice
  feed intake and water intake: took less feed and water
  number of lymph node cells (BrdU assay): statistically significant increase
  stimulation index: statistically significant increase

## C[Si]1(C)CC[Si](C)(C)O1 [monomer, 2,2,5,5-tetramethyl-2,5-disila-1-oxacyclopentane]
[2]
  Contact angle: 69.0±1.2 °

## Cc1ccc(C)c(N=Nc2cc(C)c(N=Nc3c(O)ccc4ccccc34)cc2C)c1 [oil red O]
Skin of mouse; 24 hours after application
  absorption of oil red O in skin tissue (fluorescence): hardly absorbed into the subcutaneous tissue
Skin of mouse; 48 hours after application
  absorption of oil red O in skin tissue (fluorescence): hardly absorbed into the subcutaneous tissue
